{
  "source": "patent US20080311200A1",
  "about": "“Controlled Slow Release Formulation of Thiamine and Use Thereof in the Treatment of Pathologies Connected to Defective Process of Learning and Memorization” (BIOPROGRESS S.P.A., priority 2004, published 2008)",
  "origin": "cited, not measured here",
  "test_system": "mechanism of active transport through the intestine wall",
  "data": [
    {"smiles": "Cc1ncc(C[n+]2csc(CCO)c2C)c(N)n1", "note": "[thiamine]", "values": [
      {"measurement": "concentration above which the active transport of intestinal absorption reaches saturation", "value": "higher than 2 μM"}
    ]}
  ]
}
